# From article PMC5601486, “Identification of 4-phenylquinolin-2(1H)-one as a specific allosteric inhibitor of Akt” (Scientific Reports, 2017)
# How the values were obtained:
# Assay in all cases: KINOMEscan
# Details in all cases: 50000 nM
# EPHA3 = tested on: EPHA3
# Procedure: KINOMEscan™ selectivity screen
# (§1) The assay was perfor med at DiscoveRx Corporation according the methods published previously5. Briefly, Kinase-tagged T7 phage strains were grown in parallel in an E. coli host derived from the BL21 strain. E. coli were grown to log-phase and infected with T7 phage from a frozen stock and incubated with shaking at 32°C until lysis (90-150 minutes). The kinases were produced in HEK-293 cells and subsequently tagged with DNA for qPCR detection. Streptavidin-coated magnetic beads were treated with biotinylated small molecule ligands to generate affinity resins for kinase
# (§2) inhibitor or DMSO control was performed in polypropylene 384-well plates for 1 hr at room temperature. After wash with PBS buffer containing 0.05% Tween 20, the beads were incubated in elution buffer (PBS containing 0.05 % Tween 20 and 0.5 μM non-biotinylated affinity ligand) for 30 minutes at room temperature. The kinase concentration in the eluates was measured by qPCR.
# EGFR(E746-A750del) = tested on: EGFR(E746-A750del)
# Procedure: KINOMEscan™ selectivity screen
# (§3) Briefly, Kinase-tagged T7 phage strains were grown in parallel in an E. coli host derived from the BL21 strain. E. coli were grown to log-phase and infected with T7 phage from a frozen stock and incubated with shaking at 32°C until lysis (90-150 minutes). The kinases were produced in HEK-293 cells and subsequently tagged with DNA for qPCR detection. Streptavidin-coated magnetic beads were treated with biotinylated small molecule ligands to generate affinity resins for kinase
# as §2
# PAK1 = tested on: PAK1
# Procedure: KINOMEscan™ selectivity screen
# as §1, §2
# EGFR(S752-I759del) = tested on: EGFR(S752-I759del)
# Procedure: KINOMEscan™ selectivity screen
# as §1, §2
# WNK2 = tested on: WNK2
# Procedure: KINOMEscan™ selectivity screen
# (§4) The assay was perfor med at DiscoveRx Corporation according the methods published previously5. […] The kinases were produced in HEK-293 cells and subsequently tagged with DNA for qPCR detection. Streptavidin-coated magnetic beads were treated with biotinylated small molecule ligands to generate affinity resins for kinase
# as §2
# WNK4 = tested on: WNK4
# Procedure: as §3, §2
# SLK = tested on: SLK
# Procedure: KINOMEscan™ selectivity screen
# as §1, §2
# TRKA = tested on: TRKA
# Procedure: KINOMEscan™ selectivity screen
# as §1, §2
# PRKCE = tested on: PRKCE
# Procedure: KINOMEscan™ selectivity screen
# as §1, §2
# FGFR1 = tested on: FGFR1
# Procedure: KINOMEscan™ selectivity screen
# as §1, §2
# ICK = tested on: ICK
# Procedure: KINOMEscan™ selectivity screen
# as §3, §2
# MKK7 = tested on: MKK7
# Procedure: KINOMEscan™ selectivity screen
# as §1, §2
# EPHA1 = tested on: EPHA1
# Procedure: KINOMEscan™ selectivity screen
# as §1, §2
# MARK2 = tested on: MARK2
# Procedure: KINOMEscan™ selectivity screen
# as §3, §2
# [1] = tested on: TYK2(JH2domain-pseudokinase)
# Procedure: KINOMEscan™ selectivity screen
# as §1, §2
# [2] = tested on: RSK2(Kin.Dom.1-N-terminal)
# Procedure: KINOMEscan™ selectivity screen
# as §1, §2
# [3] = tested on: ABL1(F317I)-nonphosphorylated
# Procedure: KINOMEscan™ selectivity screen
# as §1, §2
# S6K1 = tested on: S6K1
# Procedure: KINOMEscan™ selectivity screen
# as §1, §2
# NEK4 = tested on: NEK4
# Procedure: KINOMEscan™ selectivity screen
# as §1, §2
# ULK2 = tested on: ULK2
# Procedure: KINOMEscan™ selectivity screen
# as §1, §2
# LKB1 = tested on: LKB1
# Procedure: KINOMEscan™ selectivity screen
# as §4, §2
# CLK2 = tested on: CLK2
# Procedure: KINOMEscan™ selectivity screen
# as §1, §2
# MST1R = tested on: MST1R
# Procedure: KINOMEscan™ selectivity screen
# as §1, §2
# TXK = tested on: TXK
# Procedure: KINOMEscan™ selectivity screen
# as §1, §2
# MAPKAPK2 = tested on: MAPKAPK2
# Procedure: KINOMEscan™ selectivity screen
# as §1, §2
# MEK2 = tested on: MEK2
# Procedure: KINOMEscan™ selectivity screen
# as §1, §2
# SIK2 = tested on: SIK2
# Procedure: KINOMEscan™ selectivity screen
# as §3, §2
# PAK7 = tested on: PAK7
# Procedure: KINOMEscan™ selectivity screen
# as §1, §2
# HPK1 = tested on: HPK1
# Procedure: KINOMEscan™ selectivity screen
# as §1, §2
# MEK4 = tested on: MEK4
# Procedure: KINOMEscan™ selectivity screen
# as §1, §2
# QSK = tested on: QSK
# Procedure: KINOMEscan™ selectivity screen
# as §1, §2
# MYO3A = tested on: MYO3A
# Procedure: KINOMEscan™ selectivity screen
# as §1, §2
# PAK3 = tested on: PAK3
# Procedure: KINOMEscan™ selectivity screen
# as §1, §2
# CIT = tested on: CIT
# Procedure: KINOMEscan™ selectivity screen
# The kinases were produced in HEK-293 cells and subsequently tagged with DNA for qPCR detection. Streptavidin-coated magnetic beads were treated with biotinylated small molecule ligands to generate affinity resins for kinase
# as §2
# CASK = tested on: CASK
# Procedure: KINOMEscan™ selectivity screen
# as §3, §2
# CAMKK2 = tested on: CAMKK2
# Procedure: KINOMEscan™ selectivity screen
# as §1, §2
# RET(V804M) = tested on: RET(V804M)
# Procedure: KINOMEscan™ selectivity screen
# as §1, §2
# FGFR2 = tested on: FGFR2
# Procedure: KINOMEscan™ selectivity screen
# as §1, §2
# [4] = tested on: RPS6KA5(Kin.Dom.1-N-terminal)
# Procedure: KINOMEscan™ selectivity screen
# as §1, §2
compound,measurement,setting,value
"Oc1cc(-c2ccccc2)c2ccccc2n1 [G7, 4-phenylquinolin-2(1H)-one]",Percent Control,EPHA3,66%
same,Percent Control,EGFR(E746-A750del),70%
same,Percent Control,PAK1,82%
same,Percent Control,EGFR(S752-I759del),85%
same,Percent Control,WNK2,84%
same,Percent Control,WNK4,88%
same,Percent Control,SLK,89%
same,Percent Control,TRKA,65%
same,Percent Control,PRKCE,100%
same,Percent Control,FGFR1,56%
same,Percent Control,ICK,71%
same,Percent Control,MKK7,100%
same,Percent Control,EPHA1,89%
same,Percent Control,MARK2,65%
same,Percent Control,[1],15%
same,Percent Control,[2],17%
same,Percent Control,[3],71%
same,Percent Control,S6K1,96%
same,Percent Control,NEK4,95%
same,Percent Control,ULK2,76%
same,Percent Control,LKB1,96%
same,Percent Control,CLK2,64%
same,Percent Control,MST1R,100%
same,Percent Control,TXK,93%
same,Percent Control,MAPKAPK2,100%
same,Percent Control,MEK2,72%
same,Percent Control,SIK2,78%
same,Percent Control,PAK7,57%
same,Percent Control,HPK1,98%
same,Percent Control,MEK4,93%
same,Percent Control,QSK,85%
same,Percent Control,MYO3A,85%
same,Percent Control,PAK3,81%
same,Percent Control,CIT,74%
same,Percent Control,CASK,89%
same,Percent Control,CAMKK2,90%
same,Percent Control,RET(V804M),85%
same,Percent Control,FGFR2,80%
same,Percent Control,[4],89%
